This passage reports MIC results from article PMC10302868 (Molecules, 2023).

For experiment [1], the system named is P. aeruginosa ATCC 27853. Kind of experiment: MIC determination. The format is cell-based. To be noted: Pseudomonas aeruginosa, ATCC27853.
Experiment [2] concerns S. aureus SAU-0167 (MRSA). Kind of experiment: MIC determination. The format is cell-based. To be noted: Staphylococcus aureus.
Experiment [3] relates to E. faecalis ATCC 29212. Kind of experiment: MIC determination. The format is cell-based. The note with it: Enterococcus faecalis, ATCC29212.
Experiment [4] has as its system S. pyogenes SPY-0253. The experiment in a line: MIC determination. The format is cell-based. The note with it: Streptococcus pyogenes, SPY0253.
Experiment [5] concerns E. faecalis EFA-1299. Kind of experiment: MIC determination. Type of experiment: cell-based. The note with it: Enterococcus faecalis, EFA1299.
Experiment [6] deals with A. baumannii ATCC 17978. Kind of experiment: MIC determination. To be noted: Acinetobacter baumannii, ATCC17978. Type of experiment: cell-based.
Experiment [7] deals with S. aureus SAU-9922 (MRSA). Kind of experiment: MIC determination. The format is cell-based. To be noted: Staphylococcus aureus.
Experiment [8] deals with M. abscessus-C16. The experiment in a line: MIC determination (Microplate Alamar Blue Assay). The format is cell-based, Mycobacterium abscessus. To be noted: Mycobacteroides abscessus; M. abscessus-C16, 72 h. On the technique in general: Resazurin is reduced to fluorescent resorufin, in cell work by metabolically active cells.
For experiment [9], the system named is E. coli ATCC 25922. The experiment in a line: MIC determination. The format is cell-based. To be noted: Escherichia coli, ATCC25922.
The subject of experiment [10] is M. abscessus-C28. Kind of experiment: MIC determination (Microplate Alamar Blue Assay). The format is cell-based, Mycobacterium abscessus. To be noted: Mycobacteroides abscessus, 72 h.
In experiment [11] the test system is M. abscessus-GDI. Kind of experiment: MIC determination (Microplate Alamar Blue Assay). The format is cell-based, Mycobacterium abscessus. The note with it: Mycobacteroides abscessus, 72 h.
In experiment [12] the test system is E. faecium EFA-0221 (VRE). Kind of experiment: MIC determination. The format is cell-based. The note with it: Enterococcus faecium.
The subject of experiment [13] is S. aureus ATCC 29213 (MSSA). Kind of experiment: MIC determination. To be noted: Staphylococcus aureus. Type of experiment: cell-based.
Experiment [14] relates to M. abscessus-C58. The experiment in a line: MIC determination (Microplate Alamar Blue Assay). The format is cell-based, Mycobacterium abscessus. The note with it: Mycobacteroides abscessus; M. abscessus-C58, 72 h.
For experiment [15], the system named is S. epidermidis SEP-1024. The experiment in a line: MIC determination. Type of experiment: cell-based. The note with it: Staphylococcus epidermidis, SEP1024.
Experiment [16] has as its system S. aureus ATCC 700698 (MRSA). Kind of experiment: MIC determination. The format is cell-based. The note with it: Staphylococcus aureus.
Experiment [17] concerns S. maltophilia STM-0001. Kind of experiment: MIC determination. Type of experiment: cell-based. The note with it: Stenotrophomonas maltophilia, STM0001.
For experiment [18], the system named is K. pneumoniae ATCC BAA-1705. Kind of experiment: MIC determination. The format is cell-based. To be noted: Klebsiella pneumoniae, ATCCBAA1705.
The test system of experiment [19] is S. pneumoniae SPN-1169. Kind of experiment: MIC determination. Type of experiment: cell-based. The note with it: Streptococcus pneumoniae, SPN1169.
Experiment [20] has as its system A. baumannii ATCC BAA-1605. The experiment in a line: MIC determination. Type of experiment: cell-based. The note with it: Acinetobacter baumannii, ATCCBAA1605.
Experiment [21] deals with H. influenzae ATCC 49247. The experiment in a line: MIC determination. Type of experiment: cell-based. The note with it: Haemophilus influenzae, ATCC49247.
Experiment [22] concerns M. smegmatis mc^2155. Kind of experiment: MIC determination (Microplate Alamar Blue Assay). Type of experiment: cell-based. The note with it: Mycolicibacterium smegmatis; M. smegmatis mc^2155, 72 h.
Experiment [23] concerns M. tuberculosis H37Rv ATCC27294. The experiment in a line: MIC determination (Microplate Alamar Blue Assay). Type of experiment: cell-based, Mycobacterium tuberculosis. The note with it: Mycobacterium tuberculosis, 168 h, M. tuberculosis H37Rv ATCC27294, 7 days; read-out: MIC.
The subject of experiment [24] is M. bovis BCG (Pasteur 1173P2). The experiment in a line: microbe, parasite or virus in culture. The format is cell-based. The note with it: Mycobacterium tuberculosis variant bovis BCG, 168 h.

Converted amounts (≈) assume the structure as drawn.

As for `NCC[C@H](O)C(=O)N[C@@H]1C[C@H](N)[C@@H](O[C@H]2O[C@H](CN)[C@@H](O)[C@H](O)[C@H]2O)[C@H](O)[C@H]1O[C@H]1O[C@H](CO)[C@@H](O)[C@H](N)[C@H]1O` [Amikacin], the MIC was 8 µg/mL (≈ 13.7 µM) in experiment [1]; more than 32 µg/mL in experiment [2]; more than 32 µg/mL in experiment [3]; 32 µg/mL (≈ 54.6 µM) in experiment [4]; more than 32 µg/mL in [5]; 2 µg/mL (≈ 3.42 µM) in experiment [6]. Further, the MIC was 2 µg/mL (≈ 3.42 µM) in experiment [7]; 12.7 µg/mL (≈ 21.7 µM) in experiment [8]; 8 µg/mL (≈ 13.7 µM) in experiment [9]; 14.5 µg/mL (≈ 24.7 µM) in [10]; 6.38 µg/mL (≈ 10.9 µM) in experiment [11]; more than 32 µg/mL in [12]. The MIC is 8 µg/mL (≈ 13.7 µM) in experiment [13]; 12.8 µg/mL (≈ 21.9 µM) in [14]; not above 1 µg/mL in [15]; more than 32 µg/mL in [16]; more than 32 µg/mL in experiment [17]; more than 32 µg/mL in experiment [18]. Also, in experiment [19], the MIC is more than 32 µg/mL.
`O=C(O)c1cn(C2CC2)c2cc(N3CCNCC3)c(F)cc2c1=O` [Ciproflox, Ciprofloxacin]: the MIC is more than 32 µg/mL in [20]; more than 32 µg/mL in [2]; 0.25 µg/mL (≈ 0.754 µM) in experiment [4]; 0.25 µg/mL (≈ 0.754 µM) in experiment [5]; more than 32 µg/mL in [7]; not above 0.031 µg/mL in experiment [21]. The MIC in [12] is more than 32 µg/mL; in experiment [15] it was 0.25 µg/mL (≈ 0.754 µM); in experiment [17] it was 2 µg/mL (≈ 6.04 µM); in [19] it was 1 µg/mL (≈ 3.02 µM).
As to `CO[C@H]1/C=C/O[C@@]2(C)Oc3c(C)c(O)c4c(O)c(c(/C=N/N5CCN(C)CC5)c(O)c4c3C2=O)NC(=O)/C(C)=C\C=C\[C@H](C)[C@H](O)[C@@H](C)[C@@H](O)[C@@H](C)[C@H](OC(C)=O)[C@@H]1C` [Rifampicin], the MIC is more than 32 µg/mL in experiment [1]; 4 µg/mL (≈ 4.86 µM) in experiment [20]; not above 0.031 µg/mL in experiment [2]; 2 µg/mL (≈ 2.43 µM) in experiment [3]; 13.3 µg/mL (≈ 16.1 µM) in experiment [22]; 0.063 µg/mL (≈ 0.0766 µM) in experiment [4]. Besides, the MIC in experiment [5] was 1 µg/mL (≈ 1.22 µM); in [6], 2 µg/mL (≈ 2.43 µM); in experiment [7], not above 0.031 µg/mL; in experiment [8], more than 20 µg/mL; in [21], 0.25 µg/mL (≈ 0.304 µM); in experiment [9], 8 µg/mL (≈ 9.72 µM). Further, the MIC in [10] was more than 20 µg/mL; in experiment [11], more than 20 µg/mL; in [12] it was 4 µg/mL (≈ 4.86 µM); in experiment [13], 0.0063 µg/mL (≈ 0.00766 µM); in experiment [23] it was 0.031 µg/mL (≈ 0.0377 µM); in [24], not above 0.031 µg/mL. In addition, the MIC in [14] was more than 20 µg/mL; in experiment [15], not above 0.031 µg/mL; in [16] it was not above 0.031 µg/mL; in experiment [17] it was 16 µg/mL (≈ 19.4 µM); in [18], more than 32 µg/mL; in experiment [19], not above 0.031 µg/mL.
